According to patent US20240285571A1, “METHODS OF TREATING BONE INFECTIONS” (MICROBION CORPORATION, priority 2020, published 2024):
Converted amounts (≈) assume the structure as drawn. Like-named read-outs stand apart in the source and are kept apart here.

Legend:
C. parapsilosis [1] = assay: Broth microdilution MIC, yeast (Example 5); format: cell-based
Procedure: (§1) Test and Comparator Agents: The test agents were stored at room temperature until assayed. All test agents were suspended and diluted in 100% dimethylsulfoxide (DMSO), and were ultimately tested at a final concentration of 0.06-64 μg/mL. The stock solutions were allowed to stand for at least 1 hr prior to use to auto-sterilize.
(§2) The susceptibility of yeast isolates was determined by broth microdilution in RPMI medium (HyClone Laboratories, Logan, UT; Lot No. AZC184041B) buffered with 0.165 M MOPS (Calbiochem, Billerica, MA; Lot No. 2694962). The pH of the medium was adjusted to 7.0 with 1 N NaOH, sterile filtered using a 0.2 μm PES filter, and stored at 4° C. until used.
(§3) Broth Microdilution MC Testing (Aerobic Bacteria and Yeast): The broth microdilution assay method employed for the susceptibility testing of aerobic bacteria (excluding N. gonorrhoeae which was evaluated by agar dilution) and yeast essentially followed the procedures described by CLSI (3, 4, 7, 8) and employed automated liquid handlers to conduct serial dilutions and liquid transfers. Automated liquid handlers included the Multidrop 384 (Labsystems, Helsinki, Finland) and Biomek 2000 (Beckman Coulter, Fullerton CA). The wells in columns 2-12 in standard 96-well microdilution plates (Costar 3795) were filled with 150 μl of the correct diluent. These would become the ‘mother plates’ from which ‘daughter’ or test plates would be prepared. The drugs (300 μL at 40× the desired top concentration in the test plates) were dispensed into the appropriate well in Column 1 of the mother plates. The Biomek 2000 was used to make serial two-fold dilutions through Column 11 in the “mother plate”. The wells of Column 12 contained no drug and ultimately served as the organism growth control wells.
(§4) The daughter plates were loaded with 185 μL per well of the appropriate test media using the Multidrop 384. The daughter plates were prepared using the Biomek FX which transferred 5 μL of drug solution from each well of a mother plate to the corresponding well of the correct daughter plate in a single step.
(§5) A standardized inoculum of each organism was prepared per CLSI methods (3, 7). Isolated colonies of each test isolate were picked from the primary plate and a suspension was prepared to equal a 0.5 McFarland turbidity standard. Standardized suspensions were then diluted […] (1:100 for yeast, 1:20 for bacteria). After dilution, the inoculum suspensions were then transferred to compartments of sterile reservoirs divided by length (Beckman Coulter), and the Biomek 2000 was used to inoculate all plates. Daughter plates were placed on the Biomek 2000 in reverse orientation so that plates were inoculated from low to high drug concentration.
(§6) The Biomek 2000 delivered 10 μL of standardized inoculum into each well of the appropriate daughter plate for an additional 1:20 dilution. […] The final concentration of DMSO (if used as a solvent) in the test well was 2.5%.
(§7) Plates were stacked 4 high, covered with a lid on the top plate, placed into plastic bags, and incubated at 35° C. for approximately 24-48 hr for all yeast isolates and 16-24 hr for aerobic bacteria. Plates were viewed from the bottom using a plate viewer. […] MIC endpoints for the test agents and control compounds were read per CLSI criteria (3, 7).

C. albicans = assay: Broth microdilution MIC, yeast (Example 5); format: cell-based; details: Sensitive
Procedure: as §1, §2, §3, §4, §5, §6, §7

C. tropicalis = assay: Broth microdilution MIC, yeast (Example 5); format: cell-based; details: FLUR
Procedure: as §1, §2, §3, §4, §5, §6, §7

C. glabrata = assay: Broth microdilution MIC, yeast (Example 5); format: cell-based; details: FLUR
Procedure: as §1, §2, §3, §4, §5, §6, §7

C. parapsilosis [2] = details: C. parapsilosis MMX 2323 (ATCC 22019), cited from earlier work
E. faecalis = assay: Broth microdilution MIC (Example 5); format: cell-based, Enterococcus faecalis; details: VRE
Procedure: (§8) Test and Comparator Agents: The test agents were stored at room temperature until assayed. […] The stock solutions were allowed to stand for at least 1 hr prior to use to auto-sterilize.
(§9) TestMedia: Test media were prepared and stored in accordance with guidelines from CLSI (4, 6, 7).
(§10) Broth Microdilution MC Testing (Aerobic Bacteria and Yeast): The broth microdilution assay method employed for the susceptibility testing of aerobic bacteria (excluding N. gonorrhoeae which was evaluated by agar dilution) and yeast essentially followed the procedures described by CLSI (3, 4, 7, 8) and employed automated liquid handlers to conduct serial dilutions and liquid transfers. […] These would become the ‘mother plates’ from which ‘daughter’ or test plates would be prepared. The drugs (300 μL at 40× the desired top concentration in the test plates) were dispensed into the appropriate well in Column 1 of the mother plates. The Biomek 2000 was used to make serial two-fold dilutions through Column 11 in the “mother plate”. The wells of Column 12 contained no drug and ultimately served as the organism growth control wells.
(§11) The daughter plates were prepared using the Biomek FX which transferred 5 μL of drug solution from each well of a mother plate to the corresponding well of the correct daughter plate in a single step.
as §5
(§12) The Biomek 2000 delivered 10 μL of standardized inoculum into each well of the appropriate daughter plate for an additional 1:20 dilution.
as §7

E. faecium = assay: Broth microdilution MIC (Example 5); format: cell-based
Procedure: as §8, §9, §10, §11, §5, §12, §7

S. pneumoniae [3] = assay: Broth microdilution MIC (Example 5); format: cell-based; details: Streptococcus pneumoniae
Procedure: as §8, §9, §10, §11, §5, §12, §7

S. pyogenes = assay: Broth microdilution MIC (Example 5); format: cell-based
Procedure: as §8, §9, §10, §11, §5, §12, §7

S. agalactiae = assay: Broth microdilution MIC (Example 5); format: cell-based; details: Streptococcus agalactiae
Procedure: as §8, §9, §10, §11, §5, §12, §7

S. aureus = assay: Broth microdilution MIC (Example 5); format: cell-based, Staphylococcus aureus; details: Staphylococcus aureus
Procedure: as §8, §9, §10, §11, §5, §12, §7

S. pneumoniae [4] = details: S. pneumoniae MMX 6837 (ATCC 49619); cited from earlier work
[5] = system: vancomycin-intermediate Staphylococcus aureus; assay: Broth microdilution MIC (Example 6); format: cell-based; details: Staphylococcus aureus, NRS 13 / VISA, read-out: MIC values
Outline: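 CLSI broth microdilution in cation-adjusted Mueller Hinton broth, test agents 0.06-64 μg/mL from DMSO stocks, inoculum approx. 5×10^5 CFU/mL. Incubation 35° C for 16–20 hr; MIC taken as lowest concentration inhibiting visible growth.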

SMILES: C[C@@H]1[C@H](O)[C@@H](C)/C=C/C=C/C=C/C=C/C=C/C=C/C=C/[C@H](O[C@@H]2O[C@H](C)[C@@H](O)[C@H](N)[C@@H]2O)C[C@@H]2O[C@](O)(C[C@@H](O)C[C@@H](O)[C@H](O)CC[C@@H](O)C[C@@H](O)CC(=O)O[C@H]1C)C[C@H](O)[C@H]2C(=O)O [Amphotericin B, reference compound]
- MIC (C. parapsilosis [1]; C. parapsilosis MMX 2323 (ATCC 22019), QC, 24 hr): 0.5 µg/mL (≈ 0.541 µM)
- MIC (C. parapsilosis [1]; C. parapsilosis MMX 2323 (ATCC 22019), QC, 48 hr): 1 µg/mL (≈ 1.08 µM)
- MIC (C. parapsilosis [1]; C. parapsilosis MMX 7370, FLUR, 24 hr): 0.5 µg/mL (≈ 0.541 µM)
- MIC (C. parapsilosis [1]; C. parapsilosis MMX 7370, FLUR, 48 hr): 1 µg/mL (≈ 1.08 µM)
- MIC (C. parapsilosis [1]; C. parapsilosis MMX 7555, FLUR, 24 hr): 0.5, 0.5 μg/mL
- MIC (C. parapsilosis [1]; C. parapsilosis MMX 7555, FLUR, 48 hr): 0.5, 0.5 μg/mL
- MIC (C. albicans; C. albicans MMX 7039, 24 hr): 0.5, 0.5 μg/mL
- MIC (C. albicans; C. albicans MMX 7039, 48 hr): 0.5, 0.5 μg/mL
- MIC (C. albicans; C. albicans MMX 7055, 24 hr): 0.25 µg/mL (≈ 0.271 µM)
- MIC (C. albicans; C. albicans MMX 7055, 48 hr): 0.5 µg/mL (≈ 0.541 µM)
- MIC (C. tropicalis; C. tropicalis MMX 7247, 24 hr): 0.5 µg/mL (≈ 0.541 µM)
- MIC (C. tropicalis; C. tropicalis MMX 7247, 48 hr): 1 µg/mL (≈ 1.08 µM)
- MIC (C. tropicalis; C. tropicalis MMX 7248, 24 hr): 0.5 µg/mL (≈ 0.541 µM)
- MIC (C. tropicalis; C. tropicalis MMX 7248, 48 hr): 1 µg/mL (≈ 1.08 µM)
- MIC (C. tropicalis; C. tropicalis MMX 7360, 24 hr): 0.5, 0.5 μg/mL
- MIC (C. tropicalis; C. tropicalis MMX 7360, 48 hr): 0.5, 0.5 μg/mL
- MIC (C. glabrata; C. glabrata MMX 7086, 24 hr): 0.5 µg/mL (≈ 0.541 µM)
- MIC (C. glabrata; C. glabrata MMX 7086, 48 hr): 1 µg/mL (≈ 1.08 µM)
- MIC (C. glabrata; C. glabrata MMX 7318, 24 hr): 0.5 µg/mL (≈ 0.541 µM)
- MIC (C. glabrata; C. glabrata MMX 7318, 48 hr): 1 µg/mL (≈ 1.08 µM)
- CLSI QC range of MIC (C. parapsilosis [2]; 24 hr): 0.25 to 2 µg/mL
- CLSI QC range of MIC (C. parapsilosis [2]; 48 hr): 0.5 to 4 µg/mL

SMILES: OC(Cn1cncn1)(Cn1cncn1)c1ccc(F)cc1F [Fluconazole]
- CLSI QC range of MIC (C. parapsilosis [2]; 24 hr): 0.5 to 4 µg/mL
- CLSI QC range of MIC (C. parapsilosis [2]; 48 hr): 1 to 4 µg/mL

SMILES: CN[C@H](CC(C)C)C(=O)N[C@H]1C(=O)N[C@@H](CC(N)=O)C(=O)N[C@H]2C(=O)N[C@H]3C(=O)N[C@H](C(=O)N[C@H](C(=O)O)c4cc(O)cc(O)c4-c4cc3ccc4O)[C@H](O)c3ccc(c(Cl)c3)Oc3cc2cc(c3O[C@@H]2O[C@H](CO)[C@@H](O)[C@H](O)[C@H]2O[C@H]2C[C@](C)(N)[C@H](O)[C@H](C)O2)Oc2ccc(cc2Cl)[C@H]1O [Vancomycin]
- MIC (E. faecalis; E. faecalis MMX 8961): >64 µg/mL
- MIC (E. faecalis; E. faecalis MMX 8962): >64 µg/mL
- MIC (E. faecalis; Enterococcus faecalis): > 64 µg/mL
- MIC (E. faecium; E. faecium MMX 485, VRE vanA): >64 µg/mL
- MIC (E. faecium; Enterococcus faecium, VRE): > 64 µg/mL
- MIC (S. pneumoniae [3]; ATCC49619, S. pneumoniae MMX 6837 (ATCC 49619), QC): 0.25 µg/mL (≈ 0.173 µM)
- MIC (S. pneumoniae [3]; S. pneumoniae MMX 880, LevR SXTR CCR EryR PenR): 0.5 µg/mL (≈ 0.345 µM)
- MIC (S. pneumoniae [3]; S. pneumoniae MMX 937, MemR SXTR CCR EryR PenR): 0.5 µg/mL (≈ 0.345 µM)
- MIC (S. pneumoniae [3]; S. pneumoniae MMX 3959, CCR EryR): 0.5 µg/mL (≈ 0.345 µM)
- MIC (S. pneumoniae [3]; S. pneumoniae MMX 5440, MemR SXTR CCR EryR PenR): 0.25 µg/mL (≈ 0.173 µM)
- MIC (S. pneumoniae [3]; S. pneumoniae MMX 5445, MemR SXTR CCR EryR PenR): 0.25 µg/mL (≈ 0.173 µM)
- MIC (S. pneumoniae [3]; S. pneumoniae MMX 8133, MemR SXTR CCR EryR PenR): 0.25 µg/mL (≈ 0.173 µM)
- MIC (S. pyogenes; S. pyogenes MMX 3820, ERYR CLIR): 0.5 µg/mL (≈ 0.345 µM)
- MIC (S. pyogenes; S. pyogenes MMX 3919, ERYR): 0.5 µg/mL (≈ 0.345 µM)
- MIC (S. pyogenes; S. pyogenes MMX 3929, ERYR CCR): 0.5 µg/mL (≈ 0.345 µM)
- MIC (S. pyogenes; S. pyogenes MMX 5091, ERYR CCR): 0.5 µg/mL (≈ 0.345 µM)
- MIC (S. pyogenes; Streptococcus pyogenes): 0.5 µg/mL (≈ 0.345 µM)
- MIC (S. agalactiae; S. agalactiae MMX 3741, ERYR CCR): 0.5 µg/mL (≈ 0.345 µM)
- MIC (S. agalactiae; S. agalactiae MMX 3743, ERYR CCR): 0.5 µg/mL (≈ 0.345 µM)
- MIC (S. agalactiae; S. agalactiae MMX 4077, ERYR CCR): 0.5 µg/mL (≈ 0.345 µM)
- MIC (S. agalactiae; S. agalactiae MMX 4079, ERYR CCR PenR MEMR): 2 µg/mL (≈ 1.38 µM)
- MIC (S. agalactiae; S. agalactiae MMX 4086, ERYR CCR): 1 µg/mL (≈ 0.69 µM)
- MIC (S. aureus; ATCC 29213 / MSSA, S. aureus MMX 101 (ATCC 29213), QC, MSSA): 1 µg/mL (≈ 0.69 µM)
- MIC (S. aureus; MRSA, S. aureus MMX 5373): 2 µg/mL (≈ 1.38 µM)
- MIC (S. aureus; MRSA, S. aureus MMX 6311): 0.25 µg/mL (≈ 0.173 µM)
- MIC (S. aureus; MRSA, S. aureus MMX 9203): 2 µg/mL (≈ 1.38 µM)
- MIC (S. aureus; MRSA, S. aureus MMX 9204): 1 µg/mL (≈ 0.69 µM)
- MIC (S. aureus; MRSA, S. aureus MMX 9205): 2 µg/mL (≈ 1.38 µM)
- CLSI QC range of MIC (S. pneumoniae [4]): (0.12-0.5) μg/mL
- MIC [5]: 2 µg/mL
